Experimental data reported in the supplement of paper PMC5908809.

Assays:
[1] = tested on: normal NK cells expanded with K562-aAPC; assay: percent inhibition of viability; higher = more inhibition; details: 72 h, IL-2 2.5 ng/mL
Experimental: (§1)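 Drug sensitivity and resistance testing on K562-aAPC-expanded normal NK cells: 5 concentrations (10-fold steps over a 10,000-fold range), 72 h at 37 °C, viability by CellTiter-Glo normalised to DMSO and benzethonium chloride controls; DSS from the fitted curve.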

DERL-7 (IL-2 2.5 ng/mL) [2] = assay: as above; details: 72 h
IMC-1 (IL-2 20 ng/mL) [3] = assay: as above; details: 72 h
KAI3 (IL-2 2.5 ng/mL) [4] = assay: as above; details: 72 h
KHYG-1 (IL-2 2.5 ng/mL) [5] = assay: as above; details: 72 h
NK-92 (IL-2 2.5 ng/mL) [6] = assay: as above; details: 72 h
NK-YS (IL-2 2.5 ng/mL) [7] = assay: as above; details: 72 h
NKL (IL-2 2.5 ng/mL) [8] = assay: as above; details: 72 h
SNK-6 (IL-2 2.5 ng/mL) [9] = assay: as above; details: 72 h
YT (IL-2 2.5 ng/mL) [10] = assay: as above; details: 72 h
[11] = tested on: normal primary NK cells, pool 1 (3 donors) (IL-2 2.5 ng/mL); assay: as above; details: 72 h
[12] = tested on: normal primary NK cells, pool 1 (3 donors), resting (IL-2 0 ng/mL); assay: as above; details: 72 h
[13] = tested on: normal primary NK cells, pool 2 (3 donors) (IL-2 2.5 ng/mL); assay: as above; details: 72 h
[14] = tested on: normal primary NK cells, pool 3 (3 donors) (IL-2 2.5 ng/mL); assay: as above; details: 72 h
[15] = tested on: normal NK cells expanded with K562-aAPC; assay: drug sensitivity score (DSS) (DSS units); higher = more sensitive; extreme values may be limits of the assay; details: 72 h; IL-2 2.5 ng/mL
Experimental: as §1

DERL-7 (IL-2 2.5 ng/mL) [16] = assay: as above; details: 72 h
IMC-1 (IL-2 20 ng/mL) [17] = assay: as above; details: 72 h
KAI3 (IL-2 2.5 ng/mL) [18] = assay: as above; details: 72 h
KHYG-1 (IL-2 2.5 ng/mL) [19] = assay: as above; details: 72 h
NK-92 (IL-2 2.5 ng/mL) [20] = assay: as above; details: 72 h
NK-YS (IL-2 2.5 ng/mL) [21] = assay: as above; details: 72 h
NKL (IL-2 2.5 ng/mL) [22] = assay: as above; details: 72 h
SNK-6 (IL-2 2.5 ng/mL) [23] = assay: as above; details: 72 h
YT (IL-2 2.5 ng/mL) [24] = assay: as above; details: 72 h
[25] = tested on: normal primary NK cells, pool 1 (3 donors) (IL-2 2.5 ng/mL); assay: as above; details: 72 h
[26] = tested on: normal primary NK cells, pool 1 (3 donors), resting (IL-2 0 ng/mL); assay: as above; details: 72 h
[27] = tested on: normal primary NK cells, pool 2 (3 donors) (IL-2 2.5 ng/mL); assay: as above; details: 72 h
[28] = tested on: normal primary NK cells, pool 3 (3 donors) (IL-2 2.5 ng/mL); assay: as above; details: 72 h

O=C(c1cccc(Cl)c1F)N1CCN(Cc2cccc(Nc3nccs3)n2)CC1 [MK-8745] (max concentration tested 2500 nM)
percent inhibition of viability ([1]; 0.25 nM): -2.18%
percent inhibition of viability ([1]; 2.5 nM): -4.25%
percent inhibition of viability ([1]; 25 nM): -9.82%
percent inhibition of viability ([1]; 250 nM): 1.43%
percent inhibition of viability ([1]; 2500 nM): 48.4%
percent inhibition of viability (DERL-7 (IL-2 2.5 ng/mL) [2]; 0.25 nM): -8.45%
percent inhibition of viability (DERL-7 (IL-2 2.5 ng/mL) [2]; 2.5 nM): 2.62%
percent inhibition of viability (DERL-7 (IL-2 2.5 ng/mL) [2]; 25 nM): 1.62%
percent inhibition of viability (DERL-7 (IL-2 2.5 ng/mL) [2]; 250 nM): 22%
percent inhibition of viability (DERL-7 (IL-2 2.5 ng/mL) [2]; 2500 nM): 83.1%
percent inhibition of viability (IMC-1 (IL-2 20 ng/mL) [3]; 0.25 nM): -1.25%
percent inhibition of viability (IMC-1 (IL-2 20 ng/mL) [3]; 2.5 nM): -4.64%
percent inhibition of viability (IMC-1 (IL-2 20 ng/mL) [3]; 25 nM): -0.96%
percent inhibition of viability (IMC-1 (IL-2 20 ng/mL) [3]; 250 nM): 2.91%
percent inhibition of viability (IMC-1 (IL-2 20 ng/mL) [3]; 2500 nM): 66.8%
percent inhibition of viability (KAI3 (IL-2 2.5 ng/mL) [4]; 0.25 nM): -2.71%
percent inhibition of viability (KAI3 (IL-2 2.5 ng/mL) [4]; 2.5 nM): 2.86%
percent inhibition of viability (KAI3 (IL-2 2.5 ng/mL) [4]; 25 nM): -1.01%
percent inhibition of viability (KAI3 (IL-2 2.5 ng/mL) [4]; 250 nM): 18.3%
percent inhibition of viability (KAI3 (IL-2 2.5 ng/mL) [4]; 2500 nM): 36.5%
percent inhibition of viability (KHYG-1 (IL-2 2.5 ng/mL) [5]; 0.25 nM): -1.65%
percent inhibition of viability (KHYG-1 (IL-2 2.5 ng/mL) [5]; 2.5 nM): -5.36%
percent inhibition of viability (KHYG-1 (IL-2 2.5 ng/mL) [5]; 25 nM): -0.69%
percent inhibition of viability (KHYG-1 (IL-2 2.5 ng/mL) [5]; 250 nM): 6.09%
percent inhibition of viability (KHYG-1 (IL-2 2.5 ng/mL) [5]; 2500 nM): 44.4%
percent inhibition of viability (NK-92 (IL-2 2.5 ng/mL) [6]; 0.25 nM): -12.1%
percent inhibition of viability (NK-92 (IL-2 2.5 ng/mL) [6]; 2.5 nM): -7.81%
percent inhibition of viability (NK-92 (IL-2 2.5 ng/mL) [6]; 25 nM): -0.68%
percent inhibition of viability (NK-92 (IL-2 2.5 ng/mL) [6]; 250 nM): 8.86%
percent inhibition of viability (NK-92 (IL-2 2.5 ng/mL) [6]; 2500 nM): 26.2%
percent inhibition of viability (NK-YS (IL-2 2.5 ng/mL) [7]; 0.25 nM): -0.85%
percent inhibition of viability (NK-YS (IL-2 2.5 ng/mL) [7]; 2.5 nM): -3.89%
percent inhibition of viability (NK-YS (IL-2 2.5 ng/mL) [7]; 25 nM): -0.06%
percent inhibition of viability (NK-YS (IL-2 2.5 ng/mL) [7]; 250 nM): 38.4%
percent inhibition of viability (NK-YS (IL-2 2.5 ng/mL) [7]; 2500 nM): 61.3%
percent inhibition of viability (NKL (IL-2 2.5 ng/mL) [8]; 0.25 nM): -14.5%
percent inhibition of viability (NKL (IL-2 2.5 ng/mL) [8]; 2.5 nM): -12.8%
percent inhibition of viability (NKL (IL-2 2.5 ng/mL) [8]; 25 nM): -23.9%
percent inhibition of viability (NKL (IL-2 2.5 ng/mL) [8]; 250 nM): 17.2%
percent inhibition of viability (NKL (IL-2 2.5 ng/mL) [8]; 2500 nM): 40.3%
percent inhibition of viability (SNK-6 (IL-2 2.5 ng/mL) [9]; 0.25 nM): -0.59%
percent inhibition of viability (SNK-6 (IL-2 2.5 ng/mL) [9]; 2.5 nM): 0.91%
percent inhibition of viability (SNK-6 (IL-2 2.5 ng/mL) [9]; 25 nM): -4.8%
percent inhibition of viability (SNK-6 (IL-2 2.5 ng/mL) [9]; 250 nM): 47.9%
percent inhibition of viability (SNK-6 (IL-2 2.5 ng/mL) [9]; 2500 nM): 76.6%
percent inhibition of viability (YT (IL-2 2.5 ng/mL) [10]; 0.25 nM): -0.09%
percent inhibition of viability (YT (IL-2 2.5 ng/mL) [10]; 2.5 nM): -1.63%
percent inhibition of viability (YT (IL-2 2.5 ng/mL) [10]; 25 nM): -2.07%
percent inhibition of viability (YT (IL-2 2.5 ng/mL) [10]; 250 nM): 7.04%
percent inhibition of viability (YT (IL-2 2.5 ng/mL) [10]; 2500 nM): 49.4%
percent inhibition of viability ([11]; 0.25 nM): -9.49%
percent inhibition of viability ([11]; 2.5 nM): -9.51%
percent inhibition of viability ([11]; 25 nM): -7.79%
percent inhibition of viability ([11]; 250 nM): 0.54%
percent inhibition of viability ([11]; 2500 nM): -4.11%
percent inhibition of viability ([12]; 0.25 nM): -8.12%
percent inhibition of viability ([12]; 2.5 nM): -10.6%
percent inhibition of viability ([12]; 25 nM): -11.2%
percent inhibition of viability ([12]; 250 nM): 9.28%
percent inhibition of viability ([12]; 2500 nM): -1.15%
percent inhibition of viability ([13]; 0.25 nM): -9.44%
percent inhibition of viability ([13]; 2.5 nM): -9.06%
percent inhibition of viability ([13]; 25 nM): -12.7%
percent inhibition of viability ([13]; 250 nM): -6.66%
percent inhibition of viability ([13]; 2500 nM): -1.81%
percent inhibition of viability ([14]; 0.25 nM): -9.39%
percent inhibition of viability ([14]; 2.5 nM): -6.67%
percent inhibition of viability ([14]; 25 nM): -11.6%
percent inhibition of viability ([14]; 250 nM): -9.93%
percent inhibition of viability ([14]; 2500 nM): -1.62%
drug sensitivity score [15]: 2.71
drug sensitivity score (DERL-7 (IL-2 2.5 ng/mL) [16]): 7.96
drug sensitivity score (IMC-1 (IL-2 20 ng/mL) [17]): 4.06
drug sensitivity score (KAI3 (IL-2 2.5 ng/mL) [18]): 4.06
drug sensitivity score (KHYG-1 (IL-2 2.5 ng/mL) [19]): 3.3
drug sensitivity score (NK-92 (IL-2 2.5 ng/mL) [20]): 2.22
drug sensitivity score (NK-YS (IL-2 2.5 ng/mL) [21]): 7.96
drug sensitivity score (NKL (IL-2 2.5 ng/mL) [22]): 4.29
drug sensitivity score (SNK-6 (IL-2 2.5 ng/mL) [23]): 9.92
drug sensitivity score (YT (IL-2 2.5 ng/mL) [24]): 3.79
drug sensitivity score [25]: 0
drug sensitivity score [26]: 0
drug sensitivity score [27]: 0.89
drug sensitivity score [28]: 0.89
